Experimental findings from publication PMC7647782, “Cytotoxic, Antioxidant, and Metabolic Enzyme Inhibitory Activities of Euphorbia cyparissias Extracts” (Oxidative Medicine and Cellular Longevity, 2020) are described below.

In brackets after ≈: the same amount, converted by molar mass.

For one assay, the target named is SPLA2-IB. Briefly: Phospholipase activity inhibition, stingray PLA2-IB. The assay is classed as biochemical. The note with it: stingray group IB phospholipase.
A further assay addresses β-glucosidase. Briefly: β-Glucosidase activity inhibition. The assay is classed as biochemical. As for the experimental part: [20], respectively. […] The enzymes β-glucosidase, α-amylase, and XO were purchased from Sigma-Aldrich (St. Louis, MO, USA). The β-glucosidase activity was determined by measuring the 4-nitrophenol […] (4-NPGP) product. […] Then, the mixture was incubated with color reagent NPGP (180 μL) for more 15 min at 37°C. […] The activity was evaluated by measuring absorbance at 405 nm with a microplate reader. The same equation used to measure α-amylase activity was used to measure that of β-glucosidase.

The next assay deals with dromedary lipase (DrPL). Briefly: Lipase activity inhibition, dromedary lipase. The assay is classed as biochemical. The note with it: mean ± SD of triplicate. An excerpt:
Dromedary (DrPlA2-IB), porcine (PPPlA2-IB), and stingray group IB phospholipases (SPLA2-IB) were purified and prepared as described in our previous works and De Haas et al., respectively. Dromedary (DrPL), stingray (SPL), and porcine (PPL) lipases were also purified according to protocols optimized in previous works. The enzymes β-glucosidase, α-amylase, and XO were purchased from Sigma-Aldrich (St. Louis, MO, USA).
The inhibitory effect of ethanolic and aqueous extracts of E. cyparissias on dromedary, stingray, and porcine lipase activities were investigated at different concentrations ranging from 0 to 100 μg/mL. The assay was carried out by incubating 12 IU of enzymes (50 μL) with 10 μL of extract. A positive control using commercial orlistat (Xenical, Hoffmann-La Roche) was run in parallel in the same conditions. Inhibition of lipase activities was expressed as the percentage of residual activity after incubation with Euphorbia extracts compared to the negative control ([…]). Lipase activities were measured using tributyrin as a substrate under the optimal conditions for each enzyme, as previously described. The IC50 values correspond to the half maximal inhibitory concentration.
The activities of these lipases were measured using the pH-stat technique on olive oil emulsion at optimal conditions for enzyme activity. […]

The nature of assay [1]: DPPH radical scavenging assay. As for the experimental part: In every sample of E. cyparissias extract, the antioxidant activity was evaluated by using the DPPH radical scavenging and reducing power assays as previously described in the literature. To measure DPPH activity, a sample of 0.5 mL for each concentration was mixed with an equal volume of DPPH ethanolic solution and incubated in darkness for 1 h at ambient temperature. The activity was determined by comparing the absorbance at 519 nm of DPPH radicals to that of the control (containing all reagents except the extract).

For another assay, the target named is chymotrypsin (Bos taurus, UniProt P00766). Briefly: Protease activity inhibition, chymotrypsin. Conditions: unit as in head of Table 4. In kind it is biochemical. As for the experimental part:
(§1) The trypsin and chymotrypsin activity inhibition was performed as described by Kunitz. An aliquot of 1 mL of ethanolic or water extract was incubated for 15 min at 37°C with an equal volume of the enzyme. The mixture was then incubated for 30 min at 37°C with 2 mL of 2% casein as the substrate. The reaction was stopped by adding 2.5 mL of 5% trichloroacetic acid (TCA). The activity was determined by measuring the absorbance of the mixture at 280 nm, after 15 min of centrifugation at 15 000 rpm. Ethanol was used as a negative control and Bowman-Birk Inhibitor (BBI) as a positive control. The protease activity inhibition was also expressed as inhibition percentage, which was determined by comparing the results with those of a control experiment.

The target in another assay is T1, trypsin (Bos taurus, UniProt P00760).
T1 construct: gene PRSS1
T1 sequence (P00760 24-246): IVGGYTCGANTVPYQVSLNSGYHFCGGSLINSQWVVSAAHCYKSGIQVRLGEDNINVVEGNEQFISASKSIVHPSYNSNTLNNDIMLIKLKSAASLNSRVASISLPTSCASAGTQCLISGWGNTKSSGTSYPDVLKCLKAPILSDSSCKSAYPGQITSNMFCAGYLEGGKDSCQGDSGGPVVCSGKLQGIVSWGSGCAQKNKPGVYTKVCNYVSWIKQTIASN
Briefly: Protease activity inhibition, trypsin. The assay is classed as biochemical. Conditions: unit as in head of Table 4. As for the experimental part:
as §1

Protocol for SPLA2-IB: The phospholipase activities were measured based on the De Araújo and Radvanyi method [24]. The inhibitory effect of various extracts was determined using samples of dromedary, stingray, and porcine digestive group IB phospholipases (PLA2-IB). A 10 μL sample of ethanolic or aqueous extract was mixed with 10 μL of PLA2-GIB and preincubated for 20 min at room temperature. The mixture was added to 1 mL of the substrate, which was composed of lecithin (3.5 mM) solubilized in 100 mM NaCl, 3 mM sodium taurodeoxycholate, 10 mM CaCl2, and 0.055 mM red phenol at a pH of 7.6. […] The inhibition percentage was calculated by measuring residual activity compared to negative control assay (absence of extract). The IC50 values were determined from the curve.
Values represent the mean ± SD of triplicate measurements.

`CC1(C)CC[C@]2(C(=O)O)CC[C@]3(C)C(=CC[C@@H]4[C@@]5(C)CC[C@H](O)C(C)(C)[C@@H]5CC[C@]43C)[C@@H]2C1` [Oleanolic acid, oleanolic acid]: the “IC50 SPLA2-IB” value on SPLA2-IB was 82.8 ± 5.7 µg/mL (≈ 181 µM).

With `C[C@H]1O[C@H](O[C@H]2[C@H](O)[C@@H](O)[C@@H](O[C@H]3[C@H](O)[C@@H](O)C(O)O[C@@H]3CO)O[C@@H]2CO)[C@H](O)[C@@H](O)[C@@H]1N[C@H]1C=C(CO)[C@@H](O)[C@H](O)[C@H]1O` (stereo partly shown) [Acarbose], at β-glucosidase, the “IC50 β-Glucosidase” value was determined as 26.2 ± 2.5 µg/mL (≈ 40.6 µM).

Take `CCCCCCCCCCC[C@@H](C[C@@H]1OC(=O)[C@H]1CCCCCC)OC(=O)[C@H](CC(C)C)NC=O` [Orlistat, orlistat]: the “IC50 DrPL” value at dromedary lipase (DrPL) amounted to 97.2 ± 2.5 µg/mL (≈ 196 µM).

Consider `Cc1cc(C(C)(C)C)c(O)c(C(C)(C)C)c1` [BHT, butylated hydroxytoluene], for which the DPPH scavenging activity in assay [1] (at a concentration of 1 mg/mL) is 95.3 ± 0.4%. In addition, the DPPH IC50 in assay [1] (from Figure 5(b), unit as printed for BHT) is around 54 µg/mL.

“BBI: Bowman-Birk Inhibitor, positive control for trypsin and chymotrypsin inhibition”: in the assay with chymotrypsin, the “IC50 Chymotrypsin” value turned out to be 0.0108 ± 0.0004 µg/mL.

B1: BBI: Bowman-Birk Inhibitor, positive control for trypsin and chymotrypsin inhibition (protein)
chain: DDESSKPCCDQCACTKSNPPQCRCSDMRLNSCHSACKSCICALSYPAQCFCVDITDFCYEPCKPSEDDKEN
modifications: seven intrachain disulfides; Check residues are the known reactive sites Lys16 and Leu43 in mat
In the case of B1, the “IC50 Trypsin” value in the assay with trypsin was found to be 0.0115 ± 0.0004 µg/mL.
